Assay results published in paper PMC7015555, “Transthyretin-Binding Activity of Complex Mixtures Representing the Composition of Thyroid-Hormone Disrupting Contaminants in House Dust and Human Serum” (Environmental Health Perspectives, 2020).
Where two headings read alike, the source gives them in different places.

Experiments:
TTR [1] = molecular target: T1, TTR (Homo sapiens, UniProt P02766); test: Saturation experiment for the FITC-T4-TTR complex; type: binding; settings: 30 nM TTR, FITC-T4 0 to 1,000 nM, no inhibitor
Experimental: Competitive TTR-binding assays were performed by incubating human TTR ( 30nM ) with 110nM of FITC- T4 in the presence of test compounds, reference compound T4 , or carrier solvent control (1% DMSO). For each incubation with TTR, a parallel incubation was performed without TTR to correct for background fluorescence of the unbound FITC- T4 . In the competitive binding experiments, these control incubations were also used to check for possible quenching of FITC- T4 fluorescence by the test compounds and for autofluorescence of the test compounds themselves, neither of which was observed. […]
The Kd value for the FITC-T4-TTR complex was determined in a saturation binding experiment with various concentrations of FITC-T4 (ranging from LT = 0 to LT = 1E-6 M) in the absence or the presence of a fixed concentration of TTR (PT = 3E-8 M).
Using the least-squares method, a non-linear regression fit was performed on the corrected fluorescence Fc as a function of LT, yielding parameter estimates p*(q-1)=0.644 (AFU/nM) and […]
S1.4 Derivation of Ki from the ICx determined in the bioassay
The inhibitor-specific ICx value determined in the bioassay is defined as the total inhibitor concentration [IT] at which the concentration of ligand-protein complex [PLx] is (100-x)% of the concentration of ligand-protein complex in the absence of inhibitor [PL0], i.e. […]

TTR [2] = molecular target: T1, TTR; test: FITC-T4 TTR competitive binding assay; settings: pH 8
TTR [3] = settings: ref Hamers et al. 2008; Weiss et al. 2009; read-out: IC20 in the radioligand binding assay; cited from earlier work
TBG = settings: ref Salvatore et al. 2016; read-out: Kd(TBG) for T4; cited from earlier work
[4] = set-up: method as in Jahnke et al. 2004; settings: rodents; ref Jahnke et al. 2004; cited from earlier work
[5] = set-up: method as in Jahnke et al. 2004; settings: humans; ref Jahnke et al. 2004; cited from earlier work

Kd (TTR [1]) | IC20 (TTR [2]) | Structure (SMILES) | IC20 (TTR [3]) | Kd (TBG) | T4 half-life time [4] | T4 half-life time [5]
140 nM |  | O=C1OC2(c3ccc(O)cc3Oc3cc(O)ccc32)c2ccc(NC(=S)NC(Cc3cc(I)c(Oc4cc(I)c(O)c(I)c4)c(I)c3)C(=O)O)cc21 (stereo not drawn) [FITC- T4] |  |  |  | 
 | 21 nM | NC(Cc1cc(I)c(Oc2cc(I)c(O)c(I)c2)c(I)c1)C(=O)O (stereo not drawn) [Thyroxine ( T4 ), thyroxine] | ~30 nM | 0.1 nM | 12 to 24 h | 5 to 9 days
